The source of these data is PubChem BioAssay AID588774 (The Scripps Research Institute Molecular Screening Center, 2011).

Calls of active or inactive are those of the source.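 How the source made its calls: active means target enzyme inhibited at least 50% at a set dose, and selective over every off-target enzyme by a set factor; inactive means weaker inhibition or too little selectivity.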

Assay [1] can be described thus: pPAFAH inhibition and serine hydrolase selectivity, SAR follow-up, selectivity assay for pPAFAH inhibitor project, biochemical, gel-based, FP-Rh fluorescence, complex proteome, SAR compounds (AID 588774).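 On inhibition: 0% = DMSO-only band intensity and 100% = blank gel background.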 As to conditions: gel-based competitive ABPP, at 10 µM.
The next assay has as its system LYPLA1. The assay is described as above. As to conditions: gel-based competitive ABPP, stronger effect = higher value.
In the next assay the test system is ABHD3. The assay is described as above. As to conditions: gel-based competitive ABPP, at 10 µM, stronger effect = higher value.
The target of assay [2] is Platelet-activating factor acetylhydrolase (Mus musculus) (UniProt Q60963). The description is as above. To be noted: gel-based competitive ABPP, pPAFAH, stronger effect = higher value.
Another assay concerns LYPLA2. The description is as above. As to conditions: gel-based competitive ABPP, stronger effect = higher value.
The target in a further assay is ABHD4 (UniProt Q8VD66). The description is as above. As to conditions: gel-based competitive ABPP, stronger effect = higher value.
The test system of another assay is pPAFAH. The description is as above. As to conditions: gel-based competitive ABPP, anti-targets inhibited, at 10 µM.
Another assay relates to ABHD6. Described as above. To be noted: gel-based competitive ABPP, stronger effect = higher value.
A further assay deals with MW 30 kDa. The assay is described as above. As to conditions: gel-based competitive ABPP, stronger effect = higher value.
In another assay the test system is FAAH. The description is as above. As to conditions: gel-based competitive ABPP, stronger effect = higher value.
For assay [3], the target named is Monoglyceride lipase (Mus musculus) (UniProt O35678). The description is as above. As to conditions: gel-based competitive ABPP, MAGL, stronger effect = higher value.
Chain of Monoglyceride lipase (Mus musculus) (O35678 whole entry, looked up): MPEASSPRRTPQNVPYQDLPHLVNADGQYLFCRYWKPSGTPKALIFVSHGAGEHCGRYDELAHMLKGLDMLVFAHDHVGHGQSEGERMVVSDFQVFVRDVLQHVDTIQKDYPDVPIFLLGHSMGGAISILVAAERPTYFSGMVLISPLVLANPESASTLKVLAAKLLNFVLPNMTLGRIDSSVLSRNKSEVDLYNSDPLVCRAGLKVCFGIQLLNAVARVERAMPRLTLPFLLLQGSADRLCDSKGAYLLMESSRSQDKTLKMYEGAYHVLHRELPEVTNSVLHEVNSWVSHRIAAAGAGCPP

Chain of Platelet-activating factor acetylhydrolase (Mus musculus) (Q60963 whole entry, looked up): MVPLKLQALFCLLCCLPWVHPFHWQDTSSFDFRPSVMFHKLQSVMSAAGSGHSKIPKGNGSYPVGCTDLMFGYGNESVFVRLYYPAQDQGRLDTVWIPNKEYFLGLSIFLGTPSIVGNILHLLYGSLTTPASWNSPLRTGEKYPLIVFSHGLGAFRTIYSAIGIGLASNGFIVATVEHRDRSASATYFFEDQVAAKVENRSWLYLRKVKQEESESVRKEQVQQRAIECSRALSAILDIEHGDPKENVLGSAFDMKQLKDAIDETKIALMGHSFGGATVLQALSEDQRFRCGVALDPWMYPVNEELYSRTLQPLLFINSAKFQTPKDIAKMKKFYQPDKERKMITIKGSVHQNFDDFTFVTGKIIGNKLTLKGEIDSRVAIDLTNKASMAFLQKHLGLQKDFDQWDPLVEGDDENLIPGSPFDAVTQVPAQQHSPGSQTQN
Chain of ABHD4 (Q8VD66 whole entry, looked up): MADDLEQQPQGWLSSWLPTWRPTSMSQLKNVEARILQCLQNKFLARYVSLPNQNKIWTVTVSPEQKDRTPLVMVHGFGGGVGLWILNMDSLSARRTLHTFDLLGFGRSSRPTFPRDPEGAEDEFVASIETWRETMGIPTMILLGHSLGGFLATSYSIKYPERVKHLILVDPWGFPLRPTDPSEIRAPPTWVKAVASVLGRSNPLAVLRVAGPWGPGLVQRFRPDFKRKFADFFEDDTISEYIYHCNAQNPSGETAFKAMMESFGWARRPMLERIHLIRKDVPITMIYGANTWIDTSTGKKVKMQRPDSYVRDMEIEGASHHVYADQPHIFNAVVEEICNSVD

With `O=C(Oc1noc2cc(Cl)ccc12)N1CCCCC1`, the anti-target count in assay [1] (ABHD3, anti-targets inhibited) came out at 2; in assay [1] (ABHD4, anti-targets inhibited), 2; in assay [1] (ABHD6, anti-targets inhibited), 2; in assay [1] (FAAH, anti-targets inhibited) it was 2; in assay [1] (LYPLA1, anti-targets inhibited) it was 2; in assay [1] (LYPLA2, anti-targets inhibited), 2. Also, the anti-target count in assay [1] (MAGL, anti-targets inhibited) came out at 2; with pPAFAH, 2. In addition, the inhibition is 0% (inactive) in the assay with LYPLA1 (at 10 µM); 0% (inactive) in the assay with ABHD3; 100% in assay [2] (at 10 µM); 82% in assay [2] (inhibition, at 0.1 µM); 85% in assay [2] (inhibition, at 1 µM); 0% (inactive) with LYPLA2 (at 10 µM). In addition, the inhibition at ABHD4 (at 10 µM) is 0% (inactive); with ABHD6 (at 10 µM) it was 46% (inactive); in the assay with ABHD6 (inhibition, at 0.1 µM), 20%; with ABHD6 (inhibition, at 1 µM) it was 38%; with MW 30 kDa (at 1 µM) it was 40%; in the assay with FAAH (at 10 µM), 100%. The inhibition was 96% with FAAH (inhibition, at 0.1 µM); 100% in the assay with FAAH (inhibition, at 1 µM); 23% (inactive) in assay [3] (at 10 µM); 13% in assay [3] (inhibition, at 1 µM).

For the compound `Cc1cc(N2CCN(C(=O)Oc3ccc(C(F)(F)F)cc3)CC2)c2ccccc2n1`, the anti-target count in [1] (ABHD3, anti-targets inhibited) amounted to 1; in assay [1] (ABHD4, anti-targets inhibited), 1; in assay [1] (ABHD6, anti-targets inhibited), 1; in assay [1] (FAAH, anti-targets inhibited) it was 1; in assay [1] (LYPLA1, anti-targets inhibited), 1; in [1] (LYPLA2, anti-targets inhibited) it was 1. Besides, the anti-target count came out at 1 in assay [1] (MAGL, anti-targets inhibited) and 1 in the assay on pPAFAH. Further, the inhibition with LYPLA1 (at 10 µM) is 0% (inactive); with ABHD3, 0% (inactive); in assay [2] (at 10 µM), 93% (inactive); in [2] (inhibition, at 0.1 µM) it was 46%; in assay [2] (inhibition, at 1 µM), 87%; with LYPLA2 (at 10 µM) it was 0% (inactive). Further, the inhibition at ABHD4 (at 10 µM) is 72% (inactive); on ABHD4 (inhibition, at 0.1 µM), 32%; at ABHD4 (inhibition, at 1 µM), 39%; in the assay with ABHD6 (at 10 µM) it was 0% (inactive); with FAAH (at 10 µM), 0% (inactive); in assay [3] (at 10 µM), 0% (inactive).

Take `Cc1cc(N2CCN(C(=O)Oc3ccc(-c4ccccc4)cc3)CC2)c2ccccc2n1`: the anti-target count amounted to 0 in assay [1] (ABHD3, anti-targets inhibited); 0 in assay [1] (ABHD4, anti-targets inhibited); 0 in assay [1] (ABHD6, anti-targets inhibited); 0 in assay [1] (FAAH, anti-targets inhibited); 0 in assay [1] (LYPLA1, anti-targets inhibited); 0 in assay [1] (LYPLA2, anti-targets inhibited). The anti-target count in assay [1] (MAGL, anti-targets inhibited) worked out at 0; in the assay on pPAFAH, 0. Moreover, the inhibition was 0% (inactive) with LYPLA1 (at 10 µM); 0% (inactive) with ABHD3; 100% in assay [2] (at 10 µM); 66% in assay [2] (inhibition, at 0.1 µM); 95% in assay [2] (inhibition, at 1 µM); 0% (inactive) in the assay on LYPLA2 (at 10 µM). Besides, the inhibition (on ABHD4 (at 10 µM); in the assay on ABHD6 (at 10 µM); in the assay with FAAH (at 10 µM); in assay [3] (at 10 µM)) was 0% (inactive) in each case.

Regarding `O=C(N1CCOCC1)n1oc2cc(Cl)ccc2c1=O`, the anti-target count was found to be 6 in [1] (ABHD3, anti-targets inhibited); 6 in assay [1] (ABHD4, anti-targets inhibited); 6 in [1] (ABHD6, anti-targets inhibited); 6 in assay [1] (FAAH, anti-targets inhibited); 6 in assay [1] (LYPLA1, anti-targets inhibited); 6 in assay [1] (LYPLA2, anti-targets inhibited). Also, the anti-target count in assay [1] (MAGL, anti-targets inhibited) amounted to 6; with pPAFAH it was 6. The inhibition with LYPLA1 (at 10 µM) is 81% (inactive); in the assay on LYPLA1 (inhibition, at 0.1 µM), 17%; in the assay on LYPLA1 (inhibition, at 1 µM) it was 33%; in the assay with ABHD3, 0% (inactive); in assay [2] (at 10 µM), 98%; in assay [2] (inhibition, at 0.1 µM) it was 98%. Also, the inhibition in [2] (inhibition, at 1 µM) was 98%; in the assay on LYPLA2 (at 10 µM), 54% (inactive); in the assay on LYPLA2 (inhibition, at 0.1 µM), 21%; with LYPLA2 (inhibition, at 1 µM) it was 33%; on ABHD4 (at 10 µM), 0% (inactive); with ABHD6 (at 10 µM), 79% (inactive). The inhibition in the assay with ABHD6 (inhibition, at 0.1 µM) is 37%; in the assay with ABHD6 (inhibition, at 1 µM), 58%; with MW 30 kDa (at 0.1 µM) it was 31%; in the assay with MW 30 kDa (at 1 µM), 43%; with FAAH (at 10 µM) it was 100%; in the assay on FAAH (inhibition, at 0.1 µM), 83%. Also, the inhibition in the assay with FAAH (inhibition, at 1 µM) is 96%; in assay [3] (at 10 µM), 68% (inactive); in assay [3] (inhibition, at 0.1 µM), 36%; in [3] (inhibition, at 1 µM), 53%.
